In ChEMBL document CHEMBL1139194, “Antitumor agents. 256. Conjugation of paclitaxel with other antitumor agents: evaluation of novel conjugates as cytotoxic agents” (Bioorg Med Chem Lett, 2007):

Experiments:
1A9 [1] = experiment: Cytotoxicity against human 1A9 cells at 20 ug/mL by sulforhodamine B assay; type: functional
PC-3 [2] = experiment: Cytotoxicity against human PC3 cells at 20 ug/mL by sulforhodamine B assay; type: functional
[3] = Cytotoxicity against multi drug-resistant human KBVIN cells at 20 ug/mL by sulforhodamine B assay; type: functional
A549 [4] = experiment: Cytotoxicity against human A549 cells at 20 ug/mL by sulforhodamine B assay; type: functional
LNCaP [5] = experiment: Cytotoxicity against human LNCAP cells at 20 ug/mL by sulforhodamine B assay; type: functional
MCF7 [6] = experiment: Cytotoxicity against human MCF7 cells at 20 ug/mL by sulforhodamine B assay; type: functional
KB [7] = experiment: Cytotoxicity against human KB cells at 20 ug/mL by sulforhodamine B assay; type: functional
DU-145 [8] = experiment: Cytotoxicity against human DU145 cells at 20 ug/mL by sulforhodamine B assay; type: functional
[9] = Cytotoxicity against multi drug-resistant human KBVIN cells by sulforhodamine B assay; type: functional; conditions: read-out: ED50 (the source's name)
KB [10] = experiment: Cytotoxicity against human KB cells by sulforhodamine B assay; type: functional; conditions: read-out: ED50 (the source's name)
1A9 [11] = experiment: Cytotoxicity against human 1A9 cells by sulforhodamine B assay; type: functional; conditions: read-out: ED50 (the source's name)
PC-3 [12] = experiment: Cytotoxicity against human PC3 cells by sulforhodamine B assay; type: functional; conditions: read-out: ED50 (the source's name)
LNCaP [13] = experiment: Cytotoxicity against human LNCAP cells by sulforhodamine B assay; type: functional; conditions: read-out: ED50 (the source's name)
HUVEC = experiment: Antiangiogenesis activity against HUVEC cells; type: functional; conditions: Homo sapiens, read-out: ED50 (the source's name)
DU-145 [14] = experiment: Cytotoxicity against human DU145 cells by sulforhodamine B assay; type: functional; conditions: read-out: ED50 (the source's name)
MCF7 [15] = experiment: Cytotoxicity against human MCF7 cells by sulforhodamine B assay; type: functional; conditions: read-out: ED50 (the source's name)
[16] = Cytotoxicity against human MRC5 cells at 10 ug/mL by sulforhodamine B assay; type: cell-based; conditions: read-out: Inhibition
A549 [17] = experiment: Cytotoxicity against human A549 cells by sulforhodamine B assay; type: functional; conditions: read-out: ED50 (the source's name)

Compound | inhibition at 20 µg/mL (1A9 [1]) | inhibition at 20 µg/mL (PC-3 [2]) | inhibition at 20 µg/mL [3] | inhibition at 20 µg/mL (A549 [4]) | inhibition at 20 µg/mL (LNCaP [5]) | inhibition at 20 µg/mL (MCF7 [6]) | inhibition at 20 µg/mL (KB [7]) | inhibition at 20 µg/mL (DU-145 [8]) | EC50 [9] | EC50 (KB [10]) | EC50 (1A9 [11]) | EC50 (PC-3 [12]) | EC50 (LNCaP [13]) | EC50 (HUVEC) | EC50 (DU-145 [14]) | EC50 (MCF7 [15]) | cytotoxicity at 10 ug/mL [16] | EC50 (A549 [17])
CC1(C)[C@@H](O)CC[C@]2(C)[C@H]3C(=O)C=C4[C@@H]5C[C@@](C)(C(=O)O)CC[C@]5(C)CC[C@@]4(C)[C@]3(C)CC[C@@H]12 [ENOXOLONE] | < 50% | < 50% | < 50% | < 50% | < 50% | < 50% | < 50% | < 50% |  |  |  |  |  |  |  |  |  | 
COc1cc([C@@H]2c3cc4c(cc3[C@@H](Nc3ccc(C(=O)NCCC(=O)O[C@@H](C(=O)O[C@H]5C[C@@]6(O)[C@@H](OC(=O)c7ccccc7)[C@@H]7[C@]8(OC(C)=O)CO[C@@H]8C[C@H](O)[C@@]7(C)C(=O)[C@H](OC(C)=O)C(=C5C)C6(C)C)[C@@H](NC(=O)c5ccccc5)c5ccccc5)cc3)[C@H]3COC(=O)[C@H]23)OCO4)cc(OC)c1O |  |  |  |  |  |  |  |  | 9.96 µM | 8.4 nM | 2.9 nM | 12.1 nM | 4.2 nM | 4.93 nM | 8.6 nM | 6.4 nM | < 50% | 10.1 nM
